From PubChem BioAssay AID1963851 (Molecular Pharmacology Branch, DTP, NCI, 2024)
Values joined by “and” are separate entries in the source; they are usually repeats but may differ in a detail not shown here. Equal values may be shown once.

Tested on: 188146-221-R-J1-PDC complex spheroid viability
Experiment: Anticancer human tumor 188146-221-R-J1-PDC patient-derived colon adenocarcinoma cell line growth inhibition [POLQ]
Conditions: for viability, T/C: stronger effect = lower value
Procedure: Multicellular complex tumor spheroid response to Polymerase (POL) inhibitors (novobiocin, ART-558, RP6685) in combination with a variety of drugs and investigational agents in selected tumor cell lines
The POL inhibitors (novobiocin, ART-558, and RP6685) were evaluated both individually and in combination with standard of care and investigational anticancer small molecules within a complex spheroid model of solid tumors. . Complex spheroids include a stromal component modeled by human endothelial cells (HUVEC) and fibroblasts modeled by human mesenchymal stem cells (MSCs). The concentration ranges selected for each drug and investigational agent were based upon clinically achievable concentrations if the clinical Cmax of the agent was known.
Compounds. The drugs and investigational agents: novobiocin (NSC847541), ART-558 (NSC835418), RP-6685 (NSC848927), peposertib (NSC802822), ceralasertib (NSC780249), elimusertib (NSC800525), camonsertib (NSC841442), AZD-1390 (NSC803789), olaparib (NSC753686), talazoparib (NSC767125), rucaparib (NSC756644), sotorasib (NSC818433), MRTX-1133 (NSC836407), SN-38 (NSC673596), topotecan (NSC609699), epotoside (NSC141540), doxorubicin (NSC123127), gemcitabine (NSC613327), 5-fluorouracil (NSC19893), paclitaxel (NSC125973), vemurafenib (NSC761431), MSA-2 (NSC828583), SN-011 (NSC837082), adavosertib (NSC754352), prexasertib (NSC758257), carboplatin (NSC241240) and oxaliplatin (NSC266046), were obtained from the National Cancer Institute (NCI) Developmental Therapeutics Program Chemical Repository (21). The FDA-approved anticancer drug set is available from the Developmental Therapeutics Program at https://dtp.cancer.gov/organization/dscb/obtaining/. […] The stock solutions were prepared in dimethyl sulfoxide (DMSO, Sigma-Aldrich, St. Louis, MO, cat. D2650), except for the platinum compounds which were prepared in saline (Quality Biological, Gaithersburg, MD, cat. 114-055-101), at 800-fold the tested concentration and stored at -70 degrees C prior to their use. All drugs and investigational agents were tested over a range starting from a high concentration at or near the clinical Cmax and decreasing in half-log increments. If the clinical Cmax for an agent had not been determined, the highest concentration tested was 10 microM, except for SN-38, which was tested at a high concentration of 1 microM.
Cell Culture. All cells were maintained in an incubator at 37 degrees C and 5% CO2 with 95% humidity. The PDC lines were cultured according to standard operating procedures established by the NCI PDMR (https://pdmr.cancer.gov). Table 3 of the manuscript, lists the cell lines along with the number of the three cell types plated to form the mct-spheroids and media for tumor cell growth. After thawing, all PDC lines, except 997537-175-T-J1-PDC and 415267-285-R-J2-PDC, were cultured in Matrigel-coated flasks prepared with a working solution of 1X Ham's F-12 nutrient mix, without supplementation (Thermo Fisher Scientific, cat. 11765054), 100 U/mL penicillin-streptomycin (Thermo Fisher Scientific, cat. 15140122), and 2.5% Matrigel (Corning Inc., Corning, NY, cat. 354248) for the first three passages. The two PDC lines 997537-175-T-J1-PDC and 415267-285-R-J2-PDC were cultured on uncoated flasks. The 857933-349-R-J2-PDC line was cultured in 6C/Colon 1B media containing advanced DMEM/F-12 (Thermo Fisher Scientific, cat. 12634028), 10 mM HEPES (Thermo Fisher Scientific, cat. 15630080), 1X GlutaMAX supplement (Thermo Fisher Scientific, cat. 35050061), 0.1 mg/mL primocin (InvivoGen, San Diego, CA, cat. ant-pm-2), 10% defined fetal bovine serum, heat inactivated (HyClone Laboratories Inc., Logan, UT, cat. SH30070.03HI), 50% L-WRN conditioned media (ATCC, cat. CRL-3276), 1.25 mM N-Acetyl-L-cysteine (Sigma-Aldrich, cat. A9165), 10 mM nicotinamide (Sigma-Aldrich, cat. N0636), 1X B-27 supplement (Thermo Fisher Scientific, cat. 17504044), 1X N-2 supplement (Thermo Fisher Scientific, cat. […]
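Note: spheroids exposed to compounds for seven days.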
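Throughout, for viability, T/C: 100% = DMSO vehicle control viability.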

Question: `CCCS(=O)(=O)Nc1ccc(F)c(C(=O)c2c[nH]c3ncc(-c4ccc(Cl)cc4)cc23)c1F` + Nc1ccc(C#CCN(C(=O)Cc2ncc(C(F)(F)F)cc2C(F)(F)F)c2ccc(F)cc2)nn1 was tested. Which IC50 (curve of first compound, second compound 0.0316 µM) did it give?
Answer: 6.67 µM

Question: And the IC50 (curve of first compound, second compound 0.1 µM)?
Answer: 6.11 µM

Question: And the IC50 (curve of first compound, second compound 0.316 µM)?
Answer: 6.9 µM

Question: And the IC50 (curve of first compound, second compound 1 µM)?
Answer: 6.33 µM

Question: And the IC50 (curve of first compound, second compound 3.16 µM)?
Answer: 6.27 µM

Question: What about the IC50 (curve of first compound, second compound 10 µM) of the same molecule?
Answer: 6.54 µM

Question: What about the viability, T/C (second compound 0.0316 µM, first compound 0.0316 µM) of the same molecule?
Answer: 104%

Question: And the viability, T/C (second compound 0.0316 µM, first compound 0.1 µM)?
Answer: 116%

Question: What about the viability, T/C (second compound 0.0316 µM, first compound 0.316 µM) of the same molecule?
Answer: 101%

Question: What about the viability, T/C (second compound 0.0316 µM, first compound 1 µM) of the same molecule?
Answer: 84.7%

Question: And the viability, T/C (second compound 0.0316 µM, first compound 3.16 µM)?
Answer: 85.3%

Question: What about the viability, T/C (second compound 0.0316 µM, first compound 10 µM) of the same molecule?
Answer: 33.6%

Question: And the viability, T/C (second compound 0.1 µM, first compound 0.0316 µM)?
Answer: 119%

Question: What about the viability, T/C (second compound 0.1 µM, first compound 0.1 µM) of the same molecule?
Answer: 98.2%

Question: And the viability, T/C (second compound 0.1 µM, first compound 0.316 µM)?
Answer: 103%

Question: What about the viability, T/C (second compound 0.1 µM, first compound 1 µM) of the same molecule?
Answer: 89.2%

Question: And the viability, T/C (second compound 0.1 µM, first compound 3.16 µM)?
Answer: 81.9%

Question: And the viability, T/C (second compound 0.1 µM, first compound 10 µM)?
Answer: 29%

Question: What about the viability, T/C (second compound 0.316 µM, first compound 0.0316 µM) of the same molecule?
Answer: 94.4%

Question: What about the viability, T/C (second compound 0.316 µM, first compound 0.1 µM) of the same molecule?
Answer: 99.6%

Question: What about the viability, T/C (second compound 0.316 µM, first compound 0.316 µM) of the same molecule?
Answer: 101%

Question: And the viability, T/C (second compound 0.316 µM, first compound 1 µM)?
Answer: 88.7%

Question: And the viability, T/C (second compound 0.316 µM, first compound 3.16 µM)?
Answer: 93.8%

Question: What about the viability, T/C (second compound 0.316 µM, first compound 10 µM) of the same molecule?
Answer: 29.2%

Question: What about the viability, T/C (second compound 1 µM, first compound 0.0316 µM) of the same molecule?
Answer: 95.9%

Question: What about the viability, T/C (second compound 1 µM, first compound 0.1 µM) of the same molecule?
Answer: 96.7%

Question: And the viability, T/C (second compound 1 µM, first compound 0.316 µM)?
Answer: 88.9%

Question: And the viability, T/C (second compound 1 µM, first compound 1 µM)?
Answer: 76.8%

Question: And the viability, T/C (second compound 1 µM, first compound 3.16 µM)?
Answer: 80.2%

Question: And the viability, T/C (second compound 1 µM, first compound 10 µM)?
Answer: 33%

Question: What about the viability, T/C (second compound 3.16 µM, first compound 0.0316 µM) of the same molecule?
Answer: 98.5%

Question: What about the viability, T/C (second compound 3.16 µM, first compound 0.1 µM) of the same molecule?
Answer: 104%

Question: And the viability, T/C (second compound 3.16 µM, first compound 0.316 µM)?
Answer: 104%

Question: And the viability, T/C (second compound 3.16 µM, first compound 1 µM)?
Answer: 77.2%

Question: What about the viability, T/C (second compound 3.16 µM, first compound 3.16 µM) of the same molecule?
Answer: 84%

Question: And the viability, T/C (second compound 3.16 µM, first compound 10 µM)?
Answer: 30.6%

Question: What about the viability, T/C (second compound 10 µM, first compound 0.0316 µM) of the same molecule?
Answer: 116%

Question: And the viability, T/C (second compound 10 µM, first compound 0.1 µM)?
Answer: 112%

Question: And the viability, T/C (second compound 10 µM, first compound 0.316 µM)?
Answer: 103%

Question: What about the viability, T/C (second compound 10 µM, first compound 1 µM) of the same molecule?
Answer: 91.5%

Question: And the viability, T/C (second compound 10 µM, first compound 3.16 µM)?
Answer: 82.5%

Question: And the viability, T/C (second compound 10 µM, first compound 10 µM)?
Answer: 33.1%

Question: Which results are given for `C#Cc1c(F)ccc2cc(O)cc(-c3ncc4c(N5CC6CCC(C5)N6)nc(OCC56CCCN5CC(F)C6)nc4c3F)c12` (stereo not drawn)?
Answer: viability, T/C (compound 0.0316 µM): 100% and 103% and 99.2%; viability, T/C (compound 0.1 µM): 97.1% and 105% and 99.9%; viability, T/C (compound 0.316 µM): 90.5% and 81.7% and 89.8%; viability, T/C (compound 1 µM): 96.4% and 100% (2×); viability, T/C (compound 3.16 µM): 98.2% and 99.9% and 104%; viability, T/C (compound 10 µM): 89.1% and 102% and 85.3%; IC50 (curve of compound): > 10 µM

Question: Which viability, T/C (compound 0.0316 µM) does the source give for `Nc1ccn(C2OC(CO)C(O)C2(F)F)c(=O)n1` (stereo not drawn) here?
Answer: 27.1% and 27.6% and 53.7%

Question: What about the viability, T/C (compound 0.1 µM) of the same molecule?
Answer: 17.8% and 15.8% and 24.2%

Question: And the viability, T/C (compound 0.316 µM)?
Answer: 13.2% and 15.2% and 14.9%

Question: What about the viability, T/C (compound 1 µM) of the same molecule?
Answer: 16.1% and 16.9% and 13.9%

Question: And the viability, T/C (compound 3.16 µM)?
Answer: 15.9% and 19.2% and 16.6%

Question: What about the viability, T/C (compound 10 µM) of the same molecule?
Answer: 10.9% (2×) and 15.4%

Question: And the IC50 (curve of compound)?
Answer: < 0.0316 µM and 0.0364 µM

Question: What does the source list for `CC(C)n1c(=O)n(C)c2cnc3cc(F)c(-c4ccc(OCCCN5CCCCC5)nc4)cc3c21`?
Answer: viability, T/C (compound 0.0316 µM): 96.9% and 102% and 108%; viability, T/C (compound 0.1 µM): 111% and 96.7% and 100%; viability, T/C (compound 0.316 µM): 88.3% and 89.4% and 92.5%; viability, T/C (compound 1 µM): 105% and 101% and 110%; viability, T/C (compound 3.16 µM): 104% and 106% and 88.8%; viability, T/C (compound 10 µM): 77% and 95.2% and 71.2%; IC50 (curve of compound): > 10 µM
